Patent US12528837B2, “Aryl substituted polymyxin derivatives” (priority 2018, dated 2026)
Where “and” joins values, the source holds several entries; their conditions need not be identical. Equal values may be shown once.

Key:
P. aeruginosa ATCC 27853 = assay: Neutropenic murine lung model; type: in vivo; conditions: CD-1 mice lung, counts at 16 h, PMB in parentheses
Experimental: (§1) After rendering neutropenic (cyclophosphamide 200 mg/kg d-4, 150 mg/kg d-1). CD-1 mice (n=8) were inoculated intranasally with 10^4-10^5 cfu per lung of P. aeruginosa ATCC27853. Mice were dosed SC with appropriate doses of PMB sulphate or test compound (equivalent weight free base) at 2, 6 and 10 h post-infection. At 16 h post-infection mice were euthanised and lungs prepared for colony counts.
(§2) In each case the decrease observed with PMB in the same experiment is shown in parentheses: […]

[1] = Renal toxicity in mice, separate experiment Example 17 vs PMB; type: in vivo, mouse; conditions: sc 25 mg free base/kg, four doses at 8 hr intervals
Experimental: (§3) After the fourth dose animals were transferred into individual metabolic cages and urine collected for 24 hours for determination of urinary biomarkers. After collecting urine mice were euthanised and the kidneys harvested for histopathology.
In a separate experiment Example 17 was compared with PMB.

[2] = Renal toxicity of Example 24 vs PMB after four doses in mouse; type: in vivo, mouse; conditions: for Urine β-2 microglobulin: CD-1 mice, urine 24 h, normalized to urinary creatinine, mean
Experimental: Immediately after the fourth dose mice were transferred to metabolic cages and urine collected for 24 h. for determination of urinary biomarkers. After urine collection mice were sacrificed for renal histopathology.
The urine biomarkers were normalized to urinary creatinine.

A. baumannii NCTC13301 [3] = assay: Neutropenic murine thigh model; type: in vivo; conditions: CD-1 mice thigh, IV 0.5 mg/kg at 2, 6, 10 h, counts at 16 h, PMB in parentheses, listed as PMB
Experimental: After rendering neutropenic (cyclophosphamide 150 mg/kg d-4, 100 mg/kg d-1), CD-1 mice (n=5) were inoculated in each thigh with approx. 10^5 cfu of A. baumannii NCTC13301. […] At 16 h post-infection mice were euthanised and thighs prepared for colony counts.
as §2

K. pneumoniae ATCC 43816 = assay: Neutropenic murine thigh model; type: in vivo; conditions: CD-1 mice thigh, counts at 16 h, PMB in parentheses
Experimental: After rendering neutropenic (cyclophosphamide 150 mg/kg d-4, 100 mg/kg d-1), CD-1 mice (n=5) were inoculated in each thigh with approx. 10^5 cfu of K. pneumoniae ATCC43816. Mice were dosed IV with appropriate doses of PMB sulphate or test compound (equivalent weight free base) at 2, 6 and 10 h post-infection. At 16 h post-infection mice were euthanised and thighs prepared for colony counts.
as §2

HK-2 cells = assay: In vitro renal cell toxicity assay (HK-2); type: cell-based
How it was run: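 HK-2 cells seeded 7,500/well, adhered overnight, then exposed to compound for 24 h at 37° C, 5% CO2, with 5% water and 0.5% DMSO. Background-subtracted, vehicle-normalised dose-response fitted with bottom fixed at zero; IC50 reported relative to PMB in the same run, median where repeated.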

[4] = Renal toxicity in mice, 25 mg/kg sc four doses at 8 hr intervals, biomarkers and histopathology; type: in vivo, mouse; conditions: mice (n=6), sc 25 mg free base/kg
Experimental: as §3

[5] = Renal toxicity in Cynomolgus monkey, iv infusion 7 days; type: in vivo
Experimental: In a separate experiment male monkeys (n=3) were dosed with PMB for the same period at 4 mg/kg/dose. In both experiments control animals were dosed 3 times per day with saline.
At the end of the 7 day period blood was sampled and the serum levels of blood urea nitrogen and creatinine determined as indicators of renal damage.
Kidneys were harvested at the end of the 7 day dosing period and examined microscopically.

A. baumannii NCTC13301 [6] = assay: Neutropenic murine lung model; type: in vivo
Experimental: as §1, with “mg/kg d-1),” for “mg/kg d-1).”, “with approx. 10^7” for “with 10^4-10^5”, “of A. baumannii NCTC13301.” for “of P. aeruginosa ATCC27853.”, “with PMB sulphate (20 mg/kg) or” for “with”, “of” for “of PMB sulphate or”
as §2

[7] = Kidney drug level after subcutaneous dose in mouse; type: in vivo; conditions: mouse, in vivo, sc, 17.2 mg/kg
How it was run: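 Mice were euthanised four hours after subcutaneous dosing. Both kidneys were trimmed, weighed, snap-frozen, then homogenised with zirconium oxide beads. After centrifugation (13,000 rpm, 6 °C, 10 min), supernatants were analysed by LC-MS-MS.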

[8] = tested on: A. baumannii IHMA 851735 (OXA-23); type: cell-based; conditions: OXA-23; alone
Experimental: (§4) MIC values (μg/mL) were determined by broth microdilution under CLSI conditions.

E. coli CDF-1 (MCR-1) = type: cell-based; conditions: MCR-1; alone
Experimental: as §4

[9] = tested on: K. pneumoniae IHMA 520329 (SHV-12, KPC-2); type: cell-based; conditions: SHV-12, KPC-2; alone
Experimental: as §4

[10] = tested on: E. coli, K. pneumoniae, P. aeruginosa, A. baumannii strains; assay: Synergy with rifampicin across the MIC panel; type: cell-based; conditions: also against strains with reduced susceptibility to polymyxins
Experimental: as §4

[11] = cynomolgus monkey, in vivo, 4 mg/kg

In the case of Polymyxin B [reference compound], the “Log drop in cfu Compared to Vehicle Control” value (P. aeruginosa ATCC 27853; SC 5 mg/kg at 2, 6, 10 h) is reported as 0 (0), the “Log drop in cfu Compared to Vehicle Control” value (P. aeruginosa ATCC 27853; SC 7.5 mg/kg at 2, 6, 10 h) is reported as 1.0 and the “Log drop in cfu Compared to Vehicle Control” value (P. aeruginosa ATCC 27853; SC 10 mg/kg at 2, 6, 10 h) is reported as 0.7. For the same substance, the “Basophilic tubules (histopathology)” value ([1]; animals per grade) was 4 minimal/1 mild, the “Tubular degeneration/necrosis (histopathology)” value ([1]; animals per grade) was 4 normal/1 minimal and the “Albumin, elevation compared with vehicle control” value ([1]; urine) was 29×. For the same substance, the “Cystatin C, elevation compared with vehicle control” value ([1]; urine) was 2×, the “KIM-1, elevation compared with vehicle control” value ([1]; urine) was 771× and the “Tubular Degeneration/necrosis (histopathology, animals affected)” value ([2]; CD-1 mice (n=5), sc 25 mg/kg four times at 8 h intervals) was 5/5 (2 min/. For the same substance, the “Urine β-2 microglobulin” value ([2]; sc 25 mg/kg four times at 8 h intervals) was 43.83, the “Urine β-2 microglobulin” value ([2]; sc […] four times at 8 h intervals) was 3.43 and the “Basophilic Tubules (cortex) (animals affected)” value ([2]; mouse, in vivo, sc, 25 mg/kg) was 5/5 (1 min/. The “Mitotic Figures increased (animals affected)” value ([2]; mouse, in vivo, sc, 25 mg/kg) was 3/5, the “Urine Albumin” value ([2]; mouse, in vivo, sc, 25 mg/kg) was 7.73 and the “Urine Cystatin C” value ([2]; mouse, in vivo, sc, 25 mg/kg) was 44.51. For the same substance, the “Urine Kim-1” value ([2]; mouse, in vivo, sc, 25 mg/kg) was 3,446.42, the “Urine NGAL” value ([2]; mouse, in vivo, sc, 25 mg/kg) was 4.37 and the “Log drop in cfu Compared to Vehicle Control” value (A. baumannii NCTC13301 [3]) was 4.2 and 4.1. The “Log drop in cfu Compared to Vehicle Control” value (K. pneumoniae ATCC 43816; IV 0.25 mg/kg at 2, 6, 10 h) was 0.2 (0.2), the “Log drop in cfu Compared to Vehicle Control” value (K. pneumoniae ATCC 43816; IV 1 mg/kg at 2, 6, 10 h) was 5.2 and the “Log drop in cfu Compared to Vehicle Control” value (K. pneumoniae ATCC 43816; IV 2 mg/kg at 2, 6, 10 h) was 4.0. The “Log drop in cfu Compared to Vehicle Control” value (K. pneumoniae ATCC 43816; IV 4 mg/kg at 2, 6, 10 h) was 5.6, the “Log drop in cfu Compared to Vehicle Control” value (K. pneumoniae ATCC 43816; IV […] at 2, 6, 10 h) was 0.2 and the “Cytotoxicity (measured IC50 relative to that recorded for Polymyxin B)” value (HK-2 cells) was 1.0. For the same substance, the “Kidney histopathology: signs of degeneration or regeneration” value [4] was “all 6 animals treated with PMB showed minimal tubular regeneration”, the “Kidney microscopy: tubular degeneration” value ([5]; Cynomolgus monkey (n=3), 4 mg/kg/dose, 3 times per day, 7 days) was 2 showed mild tubular degeneration and 1 minimal and the “AUC0-8 hr, one dosing cycle on day 7” value [5, 11] was 117 µg·h/mL. For the same substance, the “BUN elevation compared to control animals” value [5, 11] was 76%, the “Log drop in cfu Compared to Vehicle Control” value (A. baumannii NCTC13301 [6]; CD-1 mice lung, SC 20 mg/kg at 2, 6, 10 h, counts at 16 h, PMB (20 mg/kg) in parentheses) was 0 and the “Efficacy in the model (in words)” value (A. baumannii NCTC13301 [6]; neutropenic murine lung model, A. baumannii NCTC13301, 20 mg/kg SC (PMB: maximum tolerated dose)) was “not efficacious”. The Drug Level in Kidney 4 h [7] was 128 µg/g kidney, the Drug Level in Kidney 16 h [7] was 18 µg/g kidney and the “MIC A. baumannii IHMA 851735” value [8] was 8 µg/mL. The “MIC E. coli CDF-1” value (E. coli CDF-1 (MCR-1)) was 4 µg/mL, the “MIC K. pneumoniae IHMA 520329” value [9] was 64 µg/mL and the “Synergy with rifampicin (in words)” value [10] was “strong synergy with rifampicin”.
